PubChem BioAssay AID248 (DTP/NCI, 2004)
“And” between values parts separate entries of the source, which are not always exact repeats. Identical values can stand only once. Toxic doses and inconclusive results are not listed. No stated cut-off is given here; in the data, active means T/C of 150% or more; inactive means T/C below 125%.

Test system: L1210 leukemia ip in BDF1 mice, survival T/C
Experiment: NCI In Vivo Anticancer Drug Screen. Data for tumor model L1210 Leukemia (intraperitoneal) in B6D2F1 (BDF1) mice
Conditions: higher = longer survival
Method in brief: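 Tumor cells were implanted, animals were treated, and survival was followed. The result divides the treated measurement by the vehicle-control measurement.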

[1] = endpoint: mean survival time, dose: 75.0 mg/kg/injection, schedule: Q01DX001 (ip), vehicle: saline

Measured: T/C

NC1C(O)C(O)C(Nc2ncnc3nc[nH]c23)OC1C(O)CO (stereo unspecified)
inactive: endpoint: mean survival time, dose: 0.44 mg/kg/injection, schedule: Q## X000 (ip), vehicle: carboxymethylcellulose (CMC) 98 % of control | endpoint: mean survival time, dose: 0.66 mg/kg/injection, schedule: Q## X000 (ip), vehicle: carboxymethylcellulose (CMC) 100 % of control | endpoint: mean survival time, dose: 1.0 mg/kg/injection, schedule: Q## X000 (ip), vehicle: carboxymethylcellulose (CMC) 100 % of control | endpoint: mean survival time, dose: 1.5 mg/kg/injection, schedule: Q01DX009 (ip), vehicle: saline 104 % of control | endpoint: mean survival time, dose: 1.5 mg/kg/injection, schedule: Q## X000 (ip), vehicle: carboxymethylcellulose (CMC) 100 % of control | endpoint: mean survival time, dose: 3.0 mg/kg/injection, schedule: Q01DX001 (ip), vehicle: saline 107 % of control | endpoint: mean survival time, dose: 3.0 mg/kg/injection, schedule: Q01DX009 (ip), vehicle: saline 103 % of control | endpoint: mean survival time, dose: 6.0 mg/kg/injection, schedule: Q01DX001 (ip), vehicle: saline 107 % of control | endpoint: mean survival time, dose: 6.0 mg/kg/injection, schedule: Q01DX009 (ip), vehicle: saline 101 % of control | endpoint: mean survival time, dose: 12.0 mg/kg/injection, schedule: Q01DX001 (ip), vehicle: saline 107 % of control | endpoint: mean survival time, dose: 12.0 mg/kg/injection, schedule: Q01DX009 (ip), vehicle: saline 98 % of control | endpoint: mean survival time, dose: 24.0 mg/kg/injection, schedule: Q01DX001 (ip), vehicle: saline 104 % of control | endpoint: mean survival time, dose: 24.0 mg/kg/injection, schedule: Q01DX009 (ip), vehicle: saline 101 % of control | endpoint: mean survival time, dose: 35.0 mg/kg/injection, schedule: Q01DX009 (ip), vehicle: saline 95 % of control | endpoint: mean survival time, dose: 48.0 mg/kg/injection, schedule: Q01DX001 (ip), vehicle: saline 103 % of control | endpoint: mean survival time, dose: 55.0 mg/kg/injection, schedule: Q01DX009 (ip), vehicle: saline 97 % of control | [1] 96 % of control | endpoint: mean survival time, dose: 80.0 mg/kg/injection, schedule: Q01DX009 (ip), vehicle: saline 97 % of control | endpoint: mean survival time, dose: 110.0 mg/kg/injection, schedule: Q01DX001 (ip), vehicle: saline 98 % of control | endpoint: mean survival time, dose: 165.0 mg/kg/injection, schedule: Q01DX001 (ip), vehicle: saline 101 % of control | endpoint: mean survival time, dose: 245.0 mg/kg/injection, schedule: Q01DX001 (ip), vehicle: saline 95 % of control | endpoint: mean survival time, dose: 370.0 mg/kg/injection, schedule: Q01DX001 (ip), vehicle: saline 103 % of control

BrCCCc1ccccc1
inactive: [1] 95 % of control | endpoint: mean survival time, dose: 150.0 mg/kg/injection, schedule: Q01DX001 (ip), vehicle: saline 97 % of control

CC(=O)C=O
inactive: endpoint: mean survival time, dose: 12.5 mg/kg/injection, schedule: Q01DX009 (ip), vehicle: saline 98 % of control | endpoint: mean survival time, dose: 20.5 mg/kg/injection, schedule: Q01DX006 (ip), vehicle: saline 100 % of control | endpoint: mean survival time, dose: 20.5 mg/kg/injection, schedule: Q ##X009 (ip), vehicle: saline 102 % of control | endpoint: mean survival time, dose: 20.5 mg/kg/injection, schedule: Q## X Z (ip), vehicle: saline 101 % of control | endpoint: mean survival time, dose: 25.0 mg/kg/injection, schedule: Q01DX009 (ip), vehicle: saline 88 % of control | endpoint: mean survival time, dose: 29.5 mg/kg/injection, schedule: Q01DX006 (ip), vehicle: saline 105 % of control | endpoint: mean survival time, dose: 29.5 mg/kg/injection, schedule: Q ##X009 (ip), vehicle: saline 98 % of control | endpoint: mean survival time, dose: 29.5 mg/kg/injection, schedule: Q## X Z (ip), vehicle: saline 97 % of control | endpoint: mean survival time, dose: 41.0 mg/kg/injection, schedule: Q03DX002 (ip), vehicle: saline 107 % of control | endpoint: mean survival time, dose: 42.0 mg/kg/injection, schedule: Q01DX006 (ip), vehicle: saline 96 % of control | endpoint: mean survival time, dose: 42.0 mg/kg/injection, schedule: Q ##X009 (ip), vehicle: saline 110 % of control | endpoint: mean survival time, dose: 42.0 mg/kg/injection, schedule: Q## X Z (ip), vehicle: saline 110 % of control | endpoint: mean survival time, dose: 50.0 mg/kg/injection, schedule: Q01DX009 (ip), vehicle: saline 93 % of control | endpoint: mean survival time, dose: 50.0 mg/kg/injection, schedule: Q01DX009 (ip), vehicle: water 110 % of control | endpoint: mean survival time, dose: 60.0 mg/kg/injection, schedule: Q01DX006 (ip), vehicle: saline 106 % of control and 107 % of control | endpoint: mean survival time, dose: 60.0 mg/kg/injection, schedule: Q ##X009 (ip), vehicle: saline 91 % of control | endpoint: mean survival time, dose: 60.0 mg/kg/injection, schedule: Q## X Z (ip), vehicle: saline 91 % of control | endpoint: mean survival time, dose: 71.0 mg/kg/injection, schedule: Q03DX002 (ip), vehicle: saline 118 % of control | endpoint: mean survival time, dose: 75.0 mg/kg/injection, schedule: Q01DX009 (ip), vehicle: water 113 % of control | endpoint: mean survival time, dose: 93.0 mg/kg/injection, schedule: Q01DX001 (ip), vehicle: saline 113 % of control | endpoint: mean survival time, dose: 100.0 mg/kg/injection, schedule: Q01DX009 (ip), vehicle: saline 97 % of control | endpoint: mean survival time, dose: 100.0 mg/kg/injection, schedule: Q01DX009 (ip), vehicle: water 110 % of control | endpoint: mean survival time, dose: 107.0 mg/kg/injection, schedule: Q03DX002 (ip), vehicle: saline 116 % of control | endpoint: mean survival time, dose: 127.0 mg/kg/injection, schedule: Q01DX001 (ip), vehicle: saline 123 % of control | endpoint: mean survival time, dose: 150.0 mg/kg/injection, schedule: Q01DX009 (ip), vehicle: water 103 % of control | endpoint: mean survival time, dose: 160.0 mg/kg/injection, schedule: Q03DX002 (ip), vehicle: saline 111 % of control | endpoint: mean survival time, dose: 200.0 mg/kg/injection, schedule: Q01DX001 (ip), vehicle: saline 97 % of control | endpoint: mean survival time, dose: 200.0 mg/kg/injection, schedule: Q01DX009 (ip), vehicle: saline 104 % of control | endpoint: mean survival time, dose: 200.0 mg/kg/injection, schedule: Q01DX009 (ip), vehicle: water 91 % of control | endpoint: mean survival time, dose: 400.0 mg/kg/injection, schedule: Q01DX009 (ip), vehicle: saline 111 % of control | endpoint: median survival time, dose: 35.0 mg/kg/injection, schedule: Q01DX005 (ip), vehicle: other 104 % of control | endpoint: median survival time, dose: 35.0 mg/kg/injection, schedule: Q01DX005 (ip), vehicle: saline sonified 105 % of control | endpoint: median survival time, dose: 44.0 mg/kg/injection, schedule: Q01DX005 (ip), vehicle: other 104 % of control | endpoint: median survival time, dose: 44.0 mg/kg/injection, schedule: Q01DX005 (ip), vehicle: saline sonified 105 % of control | endpoint: median survival time, dose: 55.0 mg/kg/injection, schedule: Q01DX005 (ip), vehicle: other 106 % of control | endpoint: median survival time, dose: 55.0 mg/kg/injection, schedule: Q01DX005 (ip), vehicle: saline sonified 111 % of control | endpoint: median survival time, dose: 69.0 mg/kg/injection, schedule: Q01DX005 (ip), vehicle: other 107 % of control | endpoint: median survival time, dose: 69.0 mg/kg/injection, schedule: Q01DX005 (ip), vehicle: saline sonified 111 % of control | endpoint: median survival time, dose: 86.0 mg/kg/injection, schedule: Q01DX005 (ip), vehicle: other 110 % of control | endpoint: median survival time, dose: 86.0 mg/kg/injection, schedule: Q01DX005 (ip), vehicle: saline sonified 111 % of control | endpoint: median survival time, dose: 175.0 mg/kg/injection, schedule: Q01DX001 (ip), vehicle: other 101 % of control | endpoint: median survival time, dose: 175.0 mg/kg/injection, schedule: Q01DX001 (ip), vehicle: saline sonified 100 % of control | endpoint: median survival time, dose: 194.0 mg/kg/injection, schedule: Q01DX001 (ip), vehicle: other 101 % of control | endpoint: median survival time, dose: 194.0 mg/kg/injection, schedule: Q01DX001 (ip), vehicle: saline sonified 100 % of control | endpoint: median survival time, dose: 216.0 mg/kg/injection, schedule: Q01DX001 (ip), vehicle: other 98 % of control | endpoint: median survival time, dose: 216.0 mg/kg/injection, schedule: Q01DX001 (ip), vehicle: saline sonified 100 % of control | endpoint: median survival time, dose: 240.0 mg/kg/injection, schedule: Q01DX001 (ip), vehicle: other 118 % of control | endpoint: median survival time, dose: 240.0 mg/kg/injection, schedule: Q01DX001 (ip), vehicle: saline sonified 116 % of control | endpoint: median survival time, dose: 268.0 mg/kg/injection, schedule: Q01DX001 (ip), vehicle: other 107 % of control | endpoint: median survival time, dose: 268.0 mg/kg/injection, schedule: Q01DX001 (ip), vehicle: saline sonified 105 % of control | endpoint: median survival time, dose: 298.0 mg/kg/injection, schedule: Q01DX001 (ip), vehicle: other 116 % of control | endpoint: median survival time, dose: 298.0 mg/kg/injection, schedule: Q01DX001 (ip), vehicle: saline sonified 116 % of control
